In series [1] the target is T1, c-Abl (Homo sapiens, UniProt P00519).
T1 construct: The His-tagged kinase domain of c-Abl is cloned and expressed in the baculovirus/Sf9 system; His; made in house; host or cells: baculovirus/Sf9
T1 sequence (P00519 242-493 limits assumed): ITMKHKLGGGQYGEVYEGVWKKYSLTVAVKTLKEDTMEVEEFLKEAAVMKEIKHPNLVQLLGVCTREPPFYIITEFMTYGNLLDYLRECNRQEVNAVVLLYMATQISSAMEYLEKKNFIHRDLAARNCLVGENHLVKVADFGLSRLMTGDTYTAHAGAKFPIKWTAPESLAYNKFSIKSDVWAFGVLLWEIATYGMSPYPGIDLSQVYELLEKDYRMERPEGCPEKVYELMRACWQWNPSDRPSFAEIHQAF
The series can be described thus: Test for activity against c-Abl protein tyrosine kinase (filter binding assay). In kind it is biochemical. As to the method:
Test for activity against c-Abl protein tyrosine kinase. The test is conducted as a filter binding assay as follows: The His-tagged kinase domain of c-Abl is cloned and expressed in the baculovirus/Sf9 system as described by Bhat et al., J. Biol. Chem. 272, 16170-5 (1997). A protein of 37 kD (c-Abl kinase) is purified by a two-step procedure over a cobalt metal chelate column followed by an anion exchange column with a yield of 1-2 mg/L of Sf9 cells. The purity of the c-Abl kinase is >90% as judged by SDS-PAGE after Coomassie blue staining. The assay contains: c-Abl kinase (50 ng), 20 mM Tris.HCl, pH 7.5, 10 mM MgCl2, 10 μM Na3VO4, 1 mM DTT and 0.06 μCi/assay [γ^33 P]-ATP (5 μM ATP) using 30 μg/mL poly-Ala,Glu,Lys,Tyr-6:2:5:1 (Poly-AEKY, Sigma P1152) in the presence of 1% DMSO, total volume of 30 μL. Reactions are terminated by adding 10 μL of 250 mM EDTA, and 30 μL of the reaction mixture is transferred onto Immobilon-PVDF membrane (Millipore, Bedford, Mass., USA) previously soaked for 5 min with methanol, rinsed with water, then soaked for 5 min with 0.5% H3PO4 and mounted on vacuum manifold with disconnected vacuum source. After spotting all samples, vacuum is connected and each well rinsed with 200 μL 0.5% H3PO4. Membranes are removed and washed on a shaker with 0.5% H3PO4 (4 times) and once with ethanol. Membranes are counted after drying at ambient temperature, mounting in Packard TopCount 96-well frame, and addition of 10 μL/well of Microscint™ (Packard).

Series [2] concerns the target T2, Bcr-Abl (Homo sapiens, UniProt P00519).
T2 construct: host or cells: murine myeloid progenitor cell line 32Dcl3 (32D-bcr/abl); the other entry of the earlier key: BCR (P11274, Breakpoint cluster region protein)
The series can be described thus: Test for activity against Bcr-Abl (phosphorylation ELISA in 32D-bcr/abl cells). The class given is cell-based, murine. The following applies: 32D cells transfected with p210 Bcr-Abl; ELISA of Bcr-Abl phosphorylation; read-out: bcrabl32DcEL/ Average<32Dp210IC50 [umol l−1]>. As to the method:
Test for activity against Bcr-Abl. The murine myeloid progenitor cell line 32Dcl3 transfected with the p210 Bcr-Abl expression vector pGDp210Bcr/Abl (32D-bcr/abl) was obtained from J. Griffin (Dana Faber Cancer Institute, Boston, Mass., USA). The cells express the fusion Bcr-Abl protein with a constitutively active Abl kinase and proliferate growth factor independent. The cells are expanded in RPMI 1640 (AMIMED), 10% fetal calf serum, 2 mM glutamine (Gibco) (“complete medium”), and a working stock is prepared by freezing aliquots of 2×10^6 cells per vial in freezing medium (95% FCS, 5% DMSO (SIGMA)). After thawing, the cells are used during maximally 10-12 passages for the experiments.
For cellular assays, compounds are dissolved in DMSO and diluted with complete medium to yield a starting concentration of 10 μM followed by preparation of serial 3-fold dilutions in complete medium. 200,000 32D-Bcr/Abl cells in 50 μL complete medium are seeded per well in 96 well round bottom tissue culture plates. 50 μL per well of serial 3-fold dilutions of the test compound are added to the cells in triplicates. Untreated cells are used as control. The compound is incubated together with the cells for 90 min at 37° C., 5% CO2, followed by centrifugation of the tissue culture plates at 1300 rpm (Beckman GPR centrifuge) and removal of the supernatants by careful aspiration taking care not to remove any of the pelleted cells. The cell pellets are lysed by addition of 150 μL lysis buffer (50 mM Tris/HCl, pH 7.4, 150 mM sodium chloride, 5 mM EDTA, 1 mM EGTA, 1% NP-40, 2 mM sodium ortho-vanadate, 1 mM PMSF, 50 μg/mL aprotinin and 80 μg/mL leupeptin) and either used immediately for the ELISA or stored frozen in the plates at −20° C. until usage.
Black ELISA plates (Packard HTRF-96 black plates) are precoated over night at 4° C. with 50 ng/well of the rabbit polyclonal anti-abl-SH3 domain Ab 06-466 from Upstate in 50 μL PBS. After washing 3 times with 200 μL/well PBS containing 0.05% Tween20 (PBST) and 0.5% TopBlock (Juro), residual protein binding sites are blocked with 200 μL/well PBST, 3% TopBlock for 4 h at room temperature followed by incubation with 50 μL lysates of untreated or compound-treated cells (20 μg total protein per well) for 3-4 h at 4° C. After 3 washings, 50 μL/well anti-phosphotyrosine Ab PY20(AP) labeled with alkaline phosphatase (Zymed) diluted to 0.2 μg/mL in blocking buffer is added and incubated over night (4° C.). For all incubation steps the plates are covered with plate sealers (Costar). Finally, the plates are washed another three times with washing buffer and once with deionized water before addition of 90 μL/well of the AP-substrate CDPStar RTU with Emerald II. The plates, now sealed with Packard TopSeal™-A plate sealers, are incubated for 45 min at room temperature in the dark and luminescence is quantified by measuring counts per second (CPS) with a Packard Top Count Microplate Scintillation Counter (Top Count). The difference between the ELISA-readout (CPS) obtained for with the lysates of the untreated 32D-Bcr/Abl cells and the readout for the assay-background (all components, but without cell lysate) is calculated and taken as 100% reflecting the constitutively phosphorylated Bcr-Abl protein present in these cells. The activity of the compound on the Bcr-Abl kinase activity is expressed as percent reduction of the Bcr-Abl phosphorylation. The values for the IC50 and IC90 are determined from the dose response curves by graphical extrapolation.

T2 sequence (P00519 28-1130 limits assumed): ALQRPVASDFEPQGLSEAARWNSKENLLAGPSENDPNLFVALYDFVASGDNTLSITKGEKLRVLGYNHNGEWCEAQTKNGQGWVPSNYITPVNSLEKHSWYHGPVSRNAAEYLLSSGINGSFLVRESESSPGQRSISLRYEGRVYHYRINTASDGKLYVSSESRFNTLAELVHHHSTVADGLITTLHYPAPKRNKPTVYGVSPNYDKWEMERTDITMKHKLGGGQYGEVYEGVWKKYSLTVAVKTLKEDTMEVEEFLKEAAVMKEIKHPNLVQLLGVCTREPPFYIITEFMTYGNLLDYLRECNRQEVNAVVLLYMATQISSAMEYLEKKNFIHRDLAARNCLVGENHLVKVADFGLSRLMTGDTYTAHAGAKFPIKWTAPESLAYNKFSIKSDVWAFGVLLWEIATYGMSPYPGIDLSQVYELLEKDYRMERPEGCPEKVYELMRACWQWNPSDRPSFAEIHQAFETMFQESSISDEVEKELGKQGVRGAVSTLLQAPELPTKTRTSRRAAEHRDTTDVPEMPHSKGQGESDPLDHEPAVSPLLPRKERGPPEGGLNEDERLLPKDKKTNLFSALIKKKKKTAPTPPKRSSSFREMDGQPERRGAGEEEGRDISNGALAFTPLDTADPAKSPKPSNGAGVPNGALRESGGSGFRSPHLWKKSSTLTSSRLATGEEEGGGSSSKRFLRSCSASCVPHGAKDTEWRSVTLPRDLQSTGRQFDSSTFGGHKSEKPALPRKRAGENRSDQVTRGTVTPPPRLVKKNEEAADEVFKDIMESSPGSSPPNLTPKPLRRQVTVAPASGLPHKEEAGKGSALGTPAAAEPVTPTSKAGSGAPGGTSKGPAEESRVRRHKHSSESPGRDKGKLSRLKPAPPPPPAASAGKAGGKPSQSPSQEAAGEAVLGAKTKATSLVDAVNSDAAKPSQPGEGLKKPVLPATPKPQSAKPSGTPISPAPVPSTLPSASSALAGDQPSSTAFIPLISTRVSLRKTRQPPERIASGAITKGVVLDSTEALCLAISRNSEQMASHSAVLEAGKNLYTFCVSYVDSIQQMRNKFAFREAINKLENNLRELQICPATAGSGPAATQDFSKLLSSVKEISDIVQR

For the molecule `CN1CCN(C(=O)c2ccc(-c3cc4c(N(C)C)ncnc4[nH]3)cc2)CC1` [Example 3, [4-(4-Dimethylamino-7H-pyrrolo[2,3-d]pyrimidin-6-yl)-phenyl]-(4-methyl-piperazin-1-yl)-methanone], the melting point (commonly the temperature, or range, at which the solid turns liquid) was in the range of 275 to 277 °C. The molecule further gave an IC50 in series [1] of 19 nM. For the same molecule, the IC50 in series [2] was 797 nM.
The matching figures for `CN1CCN(Cc2ccc(-c3cc4c(N(C)C)ncnc4[nH]3)cc2)CC1` [Example 4, Dimethyl-{6-[4-(4-methyl-piperazin-1-ylmethyl)-phenyl]-7H-pyrrolo[2,3-d]pyrimidin-4-yl}-amine]: 252 to 254 °C, 32 nM and 729 nM.
`CCN(CC)CCCNC(=O)c1ccc(-c2cc3c(N(C)C)ncnc3[nH]2)cc1` [Example 5, N-(3-Diethylamino-propyl)-4-(4-dimethylamino-7H-pyrrolo[2,3-d]pyrimidin-6-yl)-benzamide] showed an IC50 in series [1] of 21 nM.
Consider `CN(C)c1ncnc2[nH]c(-c3ccc(C(=O)N4CCOCC4)cc3)cc12` [Example 6, [4-(4-Dimethylamino-7H-pyrrolo[2,3-d]pyrimidin-6-yl)-phenyl]-morpholin-4-yl-methanone], for which the melting point was in the range of 316 to 318 °C. This molecule came in with an IC50 in series [1] of 2.6 nM. In series [2], the IC50 is 935 nM.
The matching figures for `CN(C)c1ncnc2[nH]c(-c3ccc(C(=O)NCCCN4CCOCC4)cc3)cc12` [Example 7, 4-(4-Dimethylamino-7H-pyrrolo[2,3-d]pyrimidin-6-yl)-N-(3-morpholin-4-yl-propyl)-benzamide]: 260 to 262 °C, 25 nM and 917 nM.
For `CNc1ncnc2[nH]c(-c3ccc(C(=O)N4CCN(C)CC4)cc3)cc12` [Example 12, [4-(4-Methylamino-7H-pyrrolo[2,3-d]pyrimidin-6-yl)-phenyl]-(4-methyl-piperazin-1-yl)-methanone], the melting point worked out at 315 °C. For the same molecule, in series [1], the IC50 was determined as 4 nM.
The molecule `CN1CCN(C(=O)c2ccc(-c3cc4c(NCCCO)ncnc4[nH]3)cc2)CC1` [Example 15, {4-[4-(3-Hydroxy-propylamino)-7H-pyrrolo[2,3-d]pyrimidin-6-yl]-phenyl}-(4-methyl-piperazin-1-yl)-methanone] gave a melting point of 302 to 305 °C. For the same molecule, the IC50 in series [1] was 14 nM.
As for `CNc1ncnc2[nH]c(-c3ccc(CN4CCN(C)CC4)cc3)cc12` [Example 16, Methyl-{6-[4-(4-methyl-piperazin-1-ylmethyl)-phenyl]-7H-pyrrolo[2,3-d]pyrimidin-4-yl}-amine], the figures for the IC50 in series [1] and in series [2] were 11 nM and 50.8 nM, respectively.
The molecule `CCCNc1ncnc2[nH]c(-c3ccc(C(=O)N4CCN(C)CC4)cc3)cc12` [Example 17, (4-Methyl-piperazin-1-yl)-[4-(4-propylamino-7H-pyrrolo[2,3-d]pyrimidin-6-yl)-phenyl]-methanone] yielded a melting point of 302 to 305 °C. The IC50 in series [1] was found to be 5 nM. In series [2], the IC50 turned out to be 1630 nM.
The matching figures for `CCCNc1ncnc2[nH]c(-c3ccc(CN4CCN(C)CC4)cc3)cc12` [Example 18, {6-[4-(4-Methyl-piperazin-1-ylmethyl)-phenyl]-7H-pyrrolo[2,3-d]pyrimidin-4-yl}-propyl-amine]: 232 to 234 °C, 6 nM and 939 nM.
Turning to `CCCN(C)c1ncnc2[nH]c(-c3ccc(CN4CCN(C)CC4)cc3)cc12` [Example 19, Methyl-{6-[4-(4-methyl-piperazin-1-ylmethyl)-phenyl]-7H-pyrrolo[2,3-d]pyrimidin-4-yl}-propyl-amine], the IC50 in series [1] was found to be 11 nM; in series [2], 2070 nM.
With `CN(C)c1ncnc2[nH]c(-c3ccc(Cn4ccnc4)cc3)cc12` [Example 24, [6-(4-Imidazol-1-ylmethyl-phenyl)-7H-pyrrolo[2,3-d]pyrimidin-4-yl]-dimethylamine], the IC50 in series [1] is 11 nM; in series [2] it was 790 nM.
For the molecule `CN(C)c1ncnc2[nH]c(-c3ccc(Cc4ccc[nH]4)cc3)cc12` [Example 25, Dimethyl-{6-[4-(1H-pyrrol-2-ylmethyl)-phenyl]-7H-pyrrolo[2,3-d]pyrimidin-4-yl}-amine], the melting point fell in the range of 285 to 287 °C. This molecule also registered an IC50 in series [1] of 9 nM. Further, the IC50 in series [2] was at least 10000 nM.
`CN(C)c1ncnc2[nH]c(-c3ccc(Cn4cnnn4)cc3)cc12` [Example 27, Dimethyl-[6-(4-tetrazol-1-ylmethyl-phenyl)-7H-pyrrolo[2,3-d]pyrimidin-4-yl]-amine] registered a melting point of 275 to 278 °C. For the same molecule, the IC50 in series [1] came out at 10 nM. Further, the IC50 in series [2] came to 903 nM.
Turning to `CN(C)c1ncnc2[nH]c(-c3ccc(CNCCCO)cc3)cc12` [Example 28, 3-[4-(4-Dimethylamino-7H-pyrrolo[2,3-d]pyrimidin-6-yl)-benzylamino]-propan-1-ol], the melting point was in the range of 218 to 220 °C. Also, the IC50 in series [2] came out at 409 nM.
Molecule `COCCN(C)Cc1ccc(-c2cc3c(N(C)C)ncnc3[nH]2)cc1` [Example 29, [6-(4-{[(2-Methoxy-ethyl)-methyl-amino]-methyl}-phenyl)-7H-pyrrolo[2,3-d]pyrimidin-4-yl]-dimethyl-amine] returned a melting point of 157 to 158 °C. The IC50 in series [2] was found to be 274 nM.
`CNc1ncnc2[nH]c(-c3ccc(C(C)(C)O)cc3)cc12` [Example 35, 2-[4-(4-Methylamino-7H-pyrrolo[2,3-d]pyrimidin-6-yl)-phenyl]-propan-2-ol] gave a melting point of 280 to 283 °C. The IC50 in series [1] was 10 nM.
Consider “[4-(4-Methylamino-7H-pyrrolo[2,3-d]pyrimidin-6-yl)-phenyl]-morpholin-4-yl-methanone [Example 2]”, for which the IC50 came out at 35 nM in series [1] and 292 nM in series [2].
